# In patent US10947499B2, “Selection of stem cell clones with defined differentiation capabilities” (Research Development Foundation, priority 2009, dated 2021):
# Legend:
# human ES cells = assay: Seeding of individualized human ES cells in 96-well plates; format: cell-based; conditions: similar to HA-100 but at 10-fold lower concentration
# [1] = tested on: Rho-associated kinase (ROCK); conditions: cited from earlier work
compound,measurement,setting,value
"Cc1cncc2cccc(S(=O)(=O)N3CCCNC[C@@H]3C)c12 [Clone H-1152, (S)-(+)-2-Methyl-1-[(4-methyl-5-isoquinolinyl)sulfonyl]homopiperazine]",seeding of individualized human ES cells,human ES cells,very efficient seeding
same,potency relative to HA-100,[1],approximately ten-fold
